Results as given in patent US20230340011A1 (Asteroid Therapeutics, priority 2022, published 2023).

Biological target: SREBP-2 (Homo sapiens (Human), UniProt Q12772)
Assay: In vitro assay SREBP-2: PathHunter U2OS SREBP-2 Nuclear Translocation Cell Line, U18666A-stimulated
Type: cell-based
Conditions: PathHunter U2OS SREBP-2 nuclear translocation cells, U18666A 10 μM, overnight (16 hours)

| SMILES | IC50 [nM] |
| --- | --- |
| CC[C@@H]1NC[C@@H]2CON(C(=O)CC[C@@H](C)[C@H]3CC[C@H]4[C@@H]5CC=C6C[C@@H](O)CC[C@]6(C)[C@H]5CC[C@]34C)[C@@H]21 [Example 48, (R)-1-((3aS,6S,6aS)-6-ethylhexahydro-1H-pyrrolo[3,4-c]isoxazol-1-yl)-4-((3S,8S,9S,10R,13R,14S,17R)-3-hydroxy-10,13-dimethyl-2,3,4,7,8,9,10,11,12,13,14,15,16,17-tetradecahydro-1H-cyclopenta[a]phenanthren-17-yl)pentan-1-one] | 250 to 1000 |
| CNC(=O)N[C@H]1CCN(C(=O)CC[C@@H](C)[C@H]2CC[C@H]3[C@@H]4CC=C5C[C@@H](O)CC[C@]5(C)[C@H]4CC[C@]23C)C1 [Example 533, 1-((S)-1-((R)-4-((3S,8S,9S,10R,13R,14S,17R)-3-hydroxy-10,13-dimethyl-2,3,4,7,8,9,10,11,12,13,14,15,16,17-tetradecahydro-1H-cyclopenta[a]phenanthren-17-yl)pentanoyl)pyrrolidin-3-yl)-3-methylurea] | < 250 |
| CNC(=O)c1ccc(O[C@@H](C)[C@H]2CC[C@H]3[C@@H]4CC=C5C[C@@H](O)CC[C@]5(C)[C@H]4CC[C@]23C)cn1 [Example 438, 5-((S)-1-((3S,8S,9S,10R,13S,14S,17S)-3-hydroxy-10,13-dimethyl-2,3,4,7,8,9,10,11,12,13,14,15,16,17-tetradecahydro-1H-cyclopenta[a]phenanthren-17-yl)ethoxy)-N-methylpicolinamide] | 250 to 1000 |
| C[C@H](CCC(=O)N1CCC(C(NC(=O)C(C)(C)O)C(F)(F)F)CC1)[C@H]1CC[C@H]2[C@@H]3CC=C4C[C@@H](O)CC[C@]4(C)[C@H]3CC[C@]12C (stereo partly drawn) [Example 479, 2-hydroxy-2-methyl-N-(2,2,2-trifluoro-1-(1-((R)-4-((3S,8S,9S,10R,13R,14S,17R)-3-hydroxy-10,13-dimethyl-2,3,4,7,8,9,10,11,12,13,14,15,16,17-tetradecahydro-1H-cyclopenta[a]phenanthren-17-yl)pentanoyl)piperidin-4-yl)ethyl)propanamide] | < 250 |
| C[C@H](Oc1cncc(CO)c1)[C@H]1CC[C@H]2[C@@H]3CC=C4C[C@@H](O)CC[C@]4(C)[C@H]3CC[C@]12C [Example 436, (3S,8S,9S,10R,13S,14S,17S)-17-((S)-1-((5-(hydroxymethyl)pyridin-3-yl)oxy)ethyl)-10,13-dim ethyl-2,3,4,7,8,9,10,11,12,13,14,15,16,17-tetradecahydro-1H-cyclopenta[a]phenanthren-3-ol] | 250 to 1000 |
| Cc1ccc(O[C@@H](C)[C@H]2CC[C@H]3[C@@H]4CC=C5C[C@@H](O)CC[C@]5(C)[C@H]4CC[C@]23C)cn1 [Example 273, (1S,3aS,3bS,7S,9aR,9bS,11aS)-9a,11a-dimethyl-1-[(1S)-1-[(6-methylpyridin-3-yl)oxy]ethyl]-1H,2H,3H,3aH,3bH,4H,6H,7H,8H,9H,9aH,9bH,10H,11H,11aH-cyclopenta[a]phenanthren-7-ol] | < 250 |
| Cc1noc(OC2CCN(C(=O)CC[C@@H](C)[C@H]3CC[C@H]4[C@@H]5CC=C6C[C@@H](O)CC[C@]6(C)[C@H]5CC[C@]34C)CC2)n1 [Example 506, (R)-4-((3S,8S,9S,10R,13R,14S,17R)-3-hydroxy-10,13-dimethyl-2,3,4,7,8,9,10,11,12,13,14,15,16,17-tetradecahydro-1H-cyclopenta[a]phenanthren-17-yl)-1-(4-((3-methyl-1,2,4-oxadiazol-5-yl)oxy)piperidin-1-yl)pentan-1-one] | < 250 |
| CCCCC1(O)CCN(C(=O)CC[C@@H](C)[C@H]2CC[C@H]3[C@@H]4CC=C5C[C@@H](O)CC[C@]5(C)[C@H]4CC[C@]23C)CC1 [Example 92, (R)-1-(4-butyl-4-hydroxypiperidin-1-yl)-4-((3S,8S,9S,10R,13R,14S,17R)-3-hydroxy-10,13-dimethyl-2,3,4,7,8,9,10,11,12,13,14,15,16,17-tetradecahydro-1H-cyclopenta[a]phenanthren-17-yl)pentan-1-one] | < 250 |
| Cc1ccncc1O[C@@H](C)[C@H]1CC[C@H]2[C@@H]3CC=C4C[C@@H](O)CC[C@]4(C)[C@H]3CC[C@]12C [Example 433, (3S,8S,9S,10R,13S,14S,17S)-10,13-dimethyl-17-((S)-1-((4-methylpyridin-3-yl)oxy)ethyl)-2,3,4,7,8,9,10,11,12,13,14,15,16,17-tetradecahydro-1H-cyclopenta[a]phenanthren-3-ol] | 250 to 1000 |
| CNC(=O)c1ccnc(OC[C@@H](C)[C@H]2CC[C@H]3[C@@H]4CC=C5C[C@@H](O)CC[C@]5(C)[C@H]4CC[C@]23C)c1 [Example 254, 2-((S)-2-((3S,8S,9S,10R,13S,14S,17R)-3-hydroxy-10,13-dimethyl-2,3,4,7,8,9,10,11,12,13,14,15,16,17-tetradecahydro-1H-cyclopenta[a]phenanthren-17-yl)propoxy)-N-methylisonicotinamide] | < 250 |
| C[C@H](CCC(=O)N1CC[C@H](NS(C)(=O)=O)C1)[C@H]1CC[C@H]2[C@@H]3CC=C4C[C@@H](O)CC[C@]4(C)[C@H]3CC[C@]12C [Example 535, N—((S)-1-((R)-4-((3S,8S,9S,10R,13R,14S,17R)-3-hydroxy-10,13-dimethyl-2,3,4,7,8,9,10,11,12,13,14,15,16,17-tetradecahydro-1H-cyclopenta[a]phenanthren-17-yl)pentanoyl)pyrrolidin-3-yl)methanesulfonamide] | 250 to 1000 |
| C[C@H](Oc1cccnc1CO)[C@H]1CC[C@H]2[C@@H]3CC=C4C[C@@H](O)CC[C@]4(C)[C@H]3CC[C@]12C [Example 270, (3S,8S,9S,10R,13S,14S,17S)-17-((S)-1-((2-(hydroxymethyl)pyridin-3-yl)oxy)ethyl)-10,13-dim ethyl-2,3,4,7,8,9,10,11,12,13,14,15,16,17-tetradecahydro-1H-cyclopenta[a]phenanthren-3-ol] | 250 to 1000 |
| Cc1cccc(OC[C@@H](C)[C@H]2CC[C@H]3[C@@H]4CC=C5C[C@@H](O)CC[C@]5(C)[C@H]4CC[C@]23C)n1 [Example 440, (1R,3aS,3bS,7S,9aR,9bS,11aS)-9a,11a-dimethyl-1-[(2S)-1-[(6-methylpyridin-2-yl)oxy]propan-2-yl]-1H,2H,3H,3aH,3bH,4H,6H,7H,8H,9H,9aH,9bH,10H,11H,11aH-cyclopenta[a]phenanthren-7-ol] | 250 to 1000 |
| C[C@H](CCC(=O)N1CCC(N2CCOCC2=O)CC1)[C@H]1CC[C@H]2[C@@H]3CC=C4C[C@@H](O)CC[C@]4(C)[C@H]3CC[C@]12C [Example 525, 4-(1-((R)-4-((3S,8S,9S,10R,13R,14S,17R)-3-hydroxy-10,13-dimethyl-2,3,4,7,8,9,10,11,12,13,14,15,16,17-tetradecahydro-1H-cyclopenta [a]phenanthren-17-yl)pentanoyl)piperidin-4-yl)morpholin-3-one] | < 250 |
| Cc1ncccc1O[C@@H](C)[C@H]1CC[C@H]2[C@@H]3CC=C4C[C@@H](O)CC[C@]4(C)[C@H]3CC[C@]12C [Example 430, (1S,3aS,3bS,7S,9aR,9bS,11aS)-9a,11a-dimethyl-1-[(1S)-1-[(2-methylpyridin-3-yl)oxy]ethyl]-1H,2H,3H,3aH,3bH,4H,6H,7H,8H,9H,9aH,9bH,10H,11H,11aH-cyclopenta[a]phenanthren-7-ol] | 250 to 1000 |
| C[C@H](CCC(=O)NCC(=O)O)[C@H]1CC[C@H]2[C@@H]3CC=C4C[C@@H](O)CC[C@]4(C)[C@H]3CC[C@]12C [Example 107, ((R)-4-((3S,8S,9S,10R,13R,14S,17R)-3-hydroxy-10,13-dimethyl-2,3,4,7,8,9,10,11,12,13,14,15,16,17-tetradecahydro-1H-cyclopenta[a]phenanthren-17-yl)pentanoyl)glycine] | > 10000 |
| CC[C@H]1NC[C@@H]2CON(C(=O)CC[C@@H](C)[C@H]3CC[C@H]4[C@@H]5CC=C6C[C@@H](O)CC[C@]6(C)[C@H]5CC[C@]34C)[C@@H]21 [Example 47, (R)-1-((3aS,6R,6aS)-6-ethylhexahydro-1H-pyrrolo[3,4-c]isoxazol-1-yl)-4-((3S,8S,9S,10R,13R,14S,17R)-3-hydroxy-10,13-dimethyl-2,3,4,7,8,9,10,11,12,13,14,15,16,17-tetradecahydro-1H-cyclopenta[a]phenanthren-17-yl)pentan-1-one] | 250 to 1000 |
| COC(=O)N1CCN(C(=O)CC[C@@H](C)[C@H]2CC[C@H]3[C@@H]4CC=C5C[C@](O)(C(F)(F)F)CC[C@]5(C)[C@H]4CC[C@]23C)CC1 [Example 419, Methyl 4-((R)-4-((3S,8S,9S,10R,13R,14S,17R)-3-hydroxy-10,13-dimethyl-3-(trifluoromethyl)-2,3,4,7,8,9,10,11,12,13,14,15,16,17-tetradecahydro-1H-cyclopenta[a]phenanthren-17-yl)pentanoyl)piperazine-1-carboxylate] | 1000 to 10000 |
| C[C@H](CNC(=O)N(C)C)[C@H]1CC[C@H]2[C@@H]3CC=C4C[C@@H](O)CC[C@]4(C)[C@H]3CC[C@]12C [Example 347, 3-((S)-2-((3S,8S,9S,10R,13S,14S,17R)-3-hydroxy-10,13-dimethyl-2,3,4,7,8,9,10,11,12,13,14,15,16,17-tetradecahydro-1H-cyclopenta[a]phenanthren-17-yl)propyl)-1,1-dimethylurea] | 250 to 1000 |
| C[C@H](CCC(=O)N1CCCC(c2ccncc2)C1)[C@H]1CC[C@H]2[C@@H]3CC=C4C[C@@H](O)CC[C@]4(C)[C@H]3CC[C@]12C (stereo partly drawn) [Example 346, (4R)-4-((3S,8S,9S,10R,13R,14S,17R)-3-hydroxy-10,13-dimethyl-2,3,4,7,8,9,10,11,12,13,14,15,16,17-tetradecahydro-1H-cyclopenta[a]phenanthren-17-yl)-1-(3-(pyridin-4-yl)piperidin-1-yl)pentan-1-one] | < 250 |
